From patent US20250074901A1, “NOVEL HETEROARYL COMPOUNDS” (ICAGEN, LLC, priority 2021, published 2025)

Biological target: T1, Kv7.2 (Homo sapiens, UniProt O43526)
T1 construct: expressed in transfected cells
Test: Activation of Kv7.2 (in vitro assay, concentration response curve)
Assay type: cell-based
Details: for Emax: Kv7.2 activation max %; for EC50: activation of Kv7.2
Method in brief: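 Agonist activity was measured in vitro across a range of compound concentrations and plotted as a sigmoidal concentration–response curve. EC50 is the concentration giving 50% of that compound's own maximal response (Emax).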

| Compound | Emax [%] | EC50 [nM] |
| --- | --- | --- |
| O=C(NCc1ccnc(OC(F)F)c1)NC12CCC(F)(CC1)CC2 [Example 48, 1-[[2-(difluoromethoxy)pyridin-4-yl]methyl]-3-(4-fluoro-1-bicyclo[2.2.2]octanyl)urea] | 54 | 160 |
| COC12CC(NC(=O)NCc3ccnc(OC(F)F)c3)(C1)C2 [Example 49, 1-[[2-(difluoromethoxy)pyridin-4-yl]methyl]-3-(3-methoxy-1-bicyclo[1.1.1]pentanyl)urea] | 48 | 1830 |
| O=C(NCc1ccnc(OC(F)F)c1)NC1(C2CCC2)CC1 [Example 50, 1-(1-cyclobutylcyclopropyl)-3-[[2-(difluoromethoxy)pyridin-4-yl]methyl]urea] | 56 | 300 |
| O=C(NCc1ccnc(OCC2CCC2)c1)N[C@H]1C[C@H](C(F)(F)F)C1 [Example 54, 1-[[2-(cyclobutylmethoxy)pyridin-4-yl]methyl]-3-[(1r,3r)-3-(trifluoromethyl)cyclobutyl]urea] | 62 | 150 |
| O=C(NCc1ccnc(OCC2CC2)c1)N[C@H]1C[C@H](C(F)(F)F)C1 [Example 55, 1-[[2-(cyclopropylmethoxy)pyridin-4-yl]methyl]-3-[(1r,3r)-3-(trifluoromethyl)cyclobutyl]urea] | 51 | 300 |
| O=C(NCc1ccnc(OCC(F)F)c1)N[C@H]1C[C@H](C(F)(F)F)C1 [Example 56, 1-[[2-(2,2-difluoroethoxy)pyridin-4-yl]methyl]-3-[(1r,3r)-3-(trifluoromethyl)cyclobutyl]urea] | 56 | 340 |
| CC(F)(F)c1cc(CNC(=O)N[C@H]2C[C@H](C(F)(F)F)C2)ccn1 [Example 57, 1-[[2-(1,1-difluoroethyl)pyridin-4-yl]methyl]-3-[(1r,3r)-3-(trifluoromethyl)cyclobutyl]urea] | 60 | 610 |
| O=C(NCc1ccnc(C(F)(F)F)c1)N[C@H]1C[C@H](C(F)(F)F)C1 [Example 58, 1-[(1r,3r)-3-(trifluoromethyl)cyclobutyl]-3-[[2-(trifluoromethyl)pyridin-4-yl]methyl]urea] | 42 | 340 |
| CCC1CC(NC(=O)NCc2ccnc(OC(F)F)c2)C1 (centres unmarked) [Example 60, 1-[[2-(difluoromethoxy)pyridin-4-yl]methyl]-3-(3-ethylcyclobutyl)urea] | 77 | 140 |
| O=C(NCc1ccnc(OC(F)F)c1)NCC1CC(C(F)(F)F)C1 (centres unmarked) [Example 62, 1-[[2-(difluoromethoxy)pyridin-4-yl]methyl]-3-[[3-(trifluoromethyl)cyclobutyl]methyl]urea] | 43 | 750 |
| N#CCOc1cc(CNC(=O)N[C@H]2C[C@H](C(F)(F)F)C2)ccn1 [Example 63, 1-[[2-(cyanomethoxy)pyridin-4-yl]methyl]-3-[(1r,3r)-3-(trifluoromethyl)cyclobutyl]urea] | 66 | 250 |
| O=C(NCc1ccnc(CC(F)(F)F)c1)N[C@H]1C[C@H](C(F)(F)F)C1 [Example 64, 1-[[2-(2,2,2-trifluoroethyl)pyridin-4-yl]methyl]-3-[(1r,3r)-3-(trifluoromethyl)cyclobutyl]urea] | 70 | 340 |
| CC1CC(NC(=O)NCc2ccnc(OC(F)F)c2)C1 (centres unmarked) [Example 65, 1-[[2-(difluoromethoxy)pyridin-4-yl]methyl]-3-(3-methylcyclobutyl)urea] | 76 | 450 |
| C#CC1CC(NC(=O)NCc2ccnc(OC(F)F)c2)C1 (centres unmarked) [Example 66, 1-[[2-(difluoromethoxy)pyridin-4-yl]methyl]-3-(3-ethynylcyclobutyl) urea] | 56 | 530 |
| O=C(NCc1ccnc(OC(F)F)c1)N[C@H]1C[C@H](F)C1 [Example 67, 1-[[2-(difluoromethoxy)pyridin-4-yl]methyl]-3-((1r,3r)-3-fluorocyclobutyl)urea] | 52 | 1870 |
| O=C(NCc1ccnc(OC(F)F)c1)NC12CCC(C(F)(F)F)(CC1)CC2 [Example 68, 1-[[2-(difluoromethoxy)pyridin-4-yl]methyl]-3-[4-(trifluoromethyl)-1-bicyclo[2.2.2]octanyl]urea] | 66 | 2550 |
| O=C(NCc1ccnc(OCC(F)(F)F)c1)NCC1CC(C(F)(F)F)C1 (centres unmarked) [Example 71, 1-[[2-(2,2,2-trifluoroethoxy)pyridin-4-yl]methyl]-3-[[3-(trifluoromethyl)cyclobutyl]methyl]urea] | 53 | 230 |
| O=C(NCc1ccnc(OCC(F)(F)F)c1)NCC12CC(F)(C1)C2 [Example 75, 1-[(3-fluoro-1-bicyclo[1.1.1]pentanyl)methyl]-3-[[2-(2,2,2-trifluoroethoxy)pyridin-4-yl]methyl]urea] | 40 | 600 |
| O=C(NCc1ccnc(OC(F)F)c1)N[C@@H]1CC[C@H]2CCC[C@H]21 [Example 76, 1-[(1R,3aR,6aR)-1,2,3,3a,4,5,6,6a-octahydropentalen-1-yl]-3-[[2-(difluoromethoxy)pyridin-4-yl]methyl]urea] | 79 | 20 |
| O=C(NCc1ccnc(OC(F)F)c1)NC1CC(C2CC2)C1 (centres unmarked) [Example 77, 1-(3-cyclopropylcyclobutyl)-3-[[2-(difluoromethoxy)pyridin-4-yl]methyl]urea] | 62 | 90 |
| O=C(NCc1ccnc(OC(F)F)c1)NC1CC2CCCC2C1 (centres unmarked) [Example 78, 1-(1,2,3,3a,4,5,6,6a-octahydropentalen-2-yl)-3-[[2-(difluoromethoxy)pyridin-4-yl]methyl]urea] | 62 | 20 |
| O=C(NCc1ccnc(OC(F)F)c1)NC12CCC(F)(CC1)CC2O (centres unmarked) [Example 82, 1-[[2-(difluoromethoxy)pyridin-4-yl]methyl]-3-(4-fluoro-2-hydroxy-1-bicyclo[2.2.2]octanyl)urea] | 48 | 1030 |
| COc1cccc(NC(=O)NCc2ccnc(OC(F)F)c2)c1 [Example 83, 1-[[2-(difluoromethoxy)pyridin-4-yl]methyl]-3-(3-methoxyphenyl)urea] | 45 | 2470 |
| O=C(NCc1ccnc(OC(F)F)c1)Nc1cccc(Cl)n1 [Example 84, 1-(6-chloropyridin-2-yl)-3-[[2-(difluoromethoxy)pyridin-4-yl]methyl]urea] | 42 | 210 |
| O=C(NC(CO)c1ccnc(OC(F)F)c1)NC12CCC(F)(CC1)CC2 (centres unmarked) [Example 85, 1-[1-[2-(difluoromethoxy)pyridin-4-yl]-2-hydroxyethyl]-3-(4-fluoro-1-bicyclo[2.2.2]octanyl)urea] | 74 | 420 |
| O=C(NCc1ccnc(OC(F)F)c1)NC[C@H]1C[C@@H](C(F)(F)F)C1 [Example 87, 1-[[2-(difluoromethoxy)pyridin-4-yl]methyl]-3-[[3-(1r,3r)-(trifluoromethyl)cyclobutyl]methyl]urea] | 40 | 850 |
| CC(F)COc1cc(CNC(=O)NC23CCC(F)(CC2)CC3)ccn1 (centres unmarked) [Example 88, 1-(4-fluoro-1-bicyclo[2.2.2]octanyl)-3-[[2-(2-fluoropropoxy)pyridin-4-yl]methyl]urea] | 43 | 440 |
| O=C(NCc1ccnc(OC(F)F)c1)NCC1CC(F)C1 (centres unmarked) [Example 89, 1-[[2-(difluoromethoxy)pyridin-4-yl]methyl]-3-[(3-fluorocyclobutyl)methyl]urea] | 46 | 1040 |
